{"source": "patent US11911434B2", "about": "“Stable antibody-drug conjugate, preparation method therefor, and use thereof” (GENEQUANTUM HEALTHCARE (SUZHOU) CO., LTD., priority 2014, dated 2024)", "key": {"BT-474 cells": {"test_system": "BT-474 cells", "test": "Tumor cell proliferation, CellTiter Glo, BT-474", "assay_type": "cell-based, human", "conditions": "BT-474, 48-96 h; read-out: Inhibition effects on tumor cell proliferation (IC50)", "protocol": "(§1) 1) ErbB2/Her2 low expressing human breast cancer cells MCF-7, MDA-MB-468, ErbB2/Her2 high expressing human breast cancer cells BT-474, SK-BR-3, HCC1954, human ovarian cancer cells SK-OV-3, human gastric cancer cell NCI-N87 was seeded into a 96-well plate at 100 μl/well (containing 1000 to 10000 cells), and incubated in a cell culture incubator overnight (37° C., 5% CO2, 95% air, 100% humidity).\n(§2) 3) The cell plate was removed from the incubator, equilibrated for about 30 minutes to room temperature. Each well was added 100 μl CellTiter Glo reagent, shocked in an oscillator for 2 min, then left stand for 10 min at room temperature in dark, the relative light units (RLU) is measured with a BioTech Gen5 microplate reader."}, "SK-BR-3 cells": {"test_system": "SK-BR-3 cells", "test": "Tumor cell proliferation, CellTiter Glo, SK-BR-3", "assay_type": "cell-based, human", "conditions": "SK-BR-3, 48-96 h; read-out: Inhibition effects on tumor cell proliferation (IC50)", "protocol": "as §1, §2"}, "HCC-1954 cells": {"test_system": "HCC-1954 cells", "test": "Tumor cell proliferation, CellTiter Glo, HCC1954", "assay_type": "cell-based, human", "conditions": "HCC-1954, 48-96 h; read-out: Inhibition effects on tumor cell proliferation (IC50)", "protocol": "as §1, §2"}, "SK-OV-3 cells": {"test_system": "SK-OV-3 cells", "test": "Tumor cell proliferation, CellTiter Glo, SK-OV-3", "assay_type": "cell-based, human", "conditions": "SK-OV-3, 48-96 h; read-out: Inhibition effects on tumor cell proliferation (IC50)", "protocol": "as §1, §2"}, "NCI-N87 cells": {"test_system": "NCI-N87 cells", "test": "Tumor cell proliferation, CellTiter Glo, NCI-N87", "assay_type": "cell-based, human", "conditions": "NCI-N87, 48-96 h; read-out: Inhibition effects on tumor cell proliferation (IC50)", "protocol": "as §1, §2"}, "[1]": {"test_system": "cells with low ErbB2/Her2 expression (MCF-7, MDA-MB-468)", "test": "Tumor cell proliferation, cells with low ErbB2/Her2 expression", "assay_type": "cell-based, human", "conditions": "0.005-30 nM", "protocol": "as §1, §2"}, "HCC1954 xenograft": {"test_system": "HCC1954 xenograft", "test": "HCC1954 xenograft in nude mice", "assay_type": "in vivo, BALB/c nude mouse", "conditions": "5 mg/kg", "protocol": "The in vivo anti-tumor effect of the candidate ADC was determined using xenograft model of nude mice after administration of the candidate ADC.\n1) HCC1954 breast cancer cells in the logarithmic growth phase were collected and adjusted with matrigel buffer (PBS: BD Matrigel=1:1) to a cell density of 2.5×10^7/ml. 0.2 ml of this prepared HCC1954 cell suspension was injected subcutaneously to the right scapula of each BALB/c nude mouse (6 to 8 week-old, SPF grade, female).\n2) 7 days after cell inoculation, the diameter of the tumor was measured by caliper and the tumor volume was calculated according to the Formula: V=0.5a×b^2 (a is the longest diameter of the tumor, b is the shortest diameter of the tumor). […] Administration was via the tail vein injection, and the control group received an equal volume of the vehicle. […] The tumor volumes at each time point were calculated and compared between groups. At the same time, the T-C or T/C value was used as the index to evaluate the anti-tumor activity of each drug. T-C value is calculated as the follows: T is the average time (Days) when the average tumor volume of each treatment group reaches a preset size (500 mm^3), C is the average time (Day) when the average tumor volume of the controlled group reaches the preset size (500 mm^3). While T/C (percentage) is the index for tumor inhibition effect, T is the average tumor volume of all the drug treatment groups at a fixed time point, and C is the average tumor volume of the control group at the fixed time point."}, "MCF-7 cells": {"test_system": "MCF-7 cells", "test": "Tumor cell proliferation, CellTiter Glo, MCF-7", "assay_type": "cell-based, human", "conditions": "MCF-7, 48-96 h; read-out: Inhibition effects on tumor cell proliferation (IC50)", "protocol": "as §1, §2"}, "MDA-MB-468 cells": {"test_system": "MDA-MB-468 cells", "test": "Tumor cell proliferation, CellTiter Glo, MDA-MB-468", "assay_type": "cell-based, human", "conditions": "MDA-MB-468, 48-96 h; read-out: Inhibition effects on tumor cell proliferation (IC50)", "protocol": "as §1, §2"}, "[2]": {"test_system": "cells with high ErbB2/Her2 expression (BT-474, SK-BR-3, HCC1954, SK-OV-3, NCI-N87)", "test": "Tumor cell proliferation, cells with high ErbB2/Her2 expression", "assay_type": "cell-based, human", "conditions": "0.005-30 nM", "protocol": "as §1, §2"}}, "note": "pIC50: −log10 of the molar value."}
{"compound": "ado-trastuzumab emtansine [Kadcyla]", "values": [{"measurement": "pIC50", "setting": "BT-474 cells", "result": 9.84}, {"measurement": "pIC50", "setting": "SK-BR-3 cells", "result": 10.52}, {"measurement": "pIC50", "setting": "HCC-1954 cells", "result": 10.31}, {"measurement": "pIC50", "setting": "SK-OV-3 cells", "result": 10.31}, {"measurement": "pIC50", "setting": "NCI-N87 cells", "result": 10.51}, {"measurement": "inhibition effect on proliferation (in words)", "setting": "[1]", "result": "only inhibits the proliferation of cells with low ErbB2/Her2 expression at high concentrations"}, {"measurement": "inhibition on ErbB2/Her2 positive breast cancer (in words)", "setting": "HCC1954 xenograft", "result": "significant inhibition"}, {"measurement": "tumor volumes compared with control group", "setting": "HCC1954 xenograft; 10 days after administration", "result": "significantly smaller than control group"}, {"measurement": "Tumor Size at day 31 (Mean ± SEM)", "setting": "HCC1954 xenograft; single tail vein injection, n=10", "result": "29 ± 4", "unit": "mm^3"}, {"measurement": "tumor regrowth", "setting": "HCC1954 xenograft; until 38 days after the administration", "result": "No sign of tumor regrowth"}, {"measurement": "T-C at 500 mm^3", "setting": "HCC1954 xenograft; time to reach 500 mm^3, treated minus control", "result": ">17", "unit": "days"}, {"measurement": "T/C", "setting": "HCC1954 xenograft; treated / control average tumor volume", "result": 1.3, "unit": "%"}]}
{"compound": "COc1cc2cc(c1Cl)N(C)C(=O)C[C@H](OC(=O)[C@H](C)N(C)C(=O)CCS)[C@]1(C)O[C@H]1[C@H](C)[C@@H]1C[C@@](O)(NC(=O)O1)[C@H](OC)/C=C/C=C(\\C)C2", "note": "[DM1]", "values": [{"measurement": "pIC50", "setting": "MCF-7 cells", "result": 8.24}, {"measurement": "pIC50", "setting": "MDA-MB-468 cells", "result": 8.37}, {"measurement": "pIC50", "setting": "BT-474 cells", "result": 7.79}, {"measurement": "pIC50", "setting": "SK-BR-3 cells", "result": 8.72}, {"measurement": "pIC50", "setting": "HCC-1954 cells", "result": 8.54}, {"measurement": "pIC50", "setting": "SK-OV-3 cells", "result": 8.80}, {"measurement": "pIC50", "setting": "NCI-N87 cells", "result": 8.14}, {"measurement": "inhibition effect on proliferation (in words)", "setting": "[2]", "result": "significant inhibition effect"}, {"measurement": "inhibition effect on proliferation (in words)", "setting": "[1]", "result": "significant inhibition effect"}]}
